We go through 15 molecules from patent US20260176275A1, “VINYLPHOSPHONIC ACID-MODIFIED MRNA CAP ANALOG, METHOD FOR PREPARING SAME, AND USE THEREOF” (Jiangsu Synthgene Biotechnology Co., Ltd., priority 2022, published 2026).

Assay [1] has as its target T1, T7 RNA polymerase (Escherichia phage T7, UniProt P00573). Put plainly: mRNA in-vitro transcription yield with cap analog (T7 IVT, Nanodrop One quantification). The assay is classed as biochemical. Particulars: for Yield: mRNA from 20 μL IVT system, 1 μl 100 mM cap analog, 1 μg template, 37° C. 2 h; for in-vitro transcription yield compared with Comparative Example 1 (in words): text summary of Table 4. As for the experimental part:
(§1) In-vitro synthesis of mRNA cap analogs modified with vinylphosphonic acid: Firstly, a plasmid was linearized with NotI and digested at […] overnight. A DNA template was extracted. mRNAs were synthesized by in-vitro transcription using the vinylphosphonic acid-modified mRNA cap analogs of Examples 1-7 and compounds 10-13, 16, 17, 25, 31 and 34, and the cap analog of Comparative Example 1 as cap structures, respectively.
(§2) Note: During the experiment, the volume of the materials required for the system was calculated firstly, and then sample loading was performed. Firstly, sterile enzyme-free water was added into the system, and then 10× buffer, NTPs, and the cap analog were sequentially added. The mixture was uniformly mixed and then gently centrifuged, followed by addition of the nuclease inhibitor, the inorganic pyrophosphatase, the T7 RNA polymerase, and the linearized DNA template. The mixture was well mixed, then gently centrifuged, and incubated at 37° C. After 2 h, DNase I (1 U) was added, and the mixture was incubated at 37° C. for another 30 min to remove the DNA template. RNA purification was then performed (usually using the magnetic bead purification method). The purified mRNA was dissolved in sterile enzyme-free water, and then quantitative detection was performed by using Nanodrop One.

For assay [2], the target named is T1, T7 RNA polymerase. Put plainly: IVT capping rate of mRNA by LC-MS after RNase H cleavage. It is filed as biochemical. The following applies: for Capping rate: LC-MS of mRNA transcribed with the cap analog; for capping efficiency compared with Comparative Example 1 (in words): text summary of Table 4. As for the experimental part:
as §1, §2
Liquid chromatography-mass spectrometry (LC-MS) was used to detect the IVT capping rates of mRNAs with different starting cap analogs. Firstly, a labeled (usually biotin-labeled) DNA probe matched with the starting base of mRNA as the transcript product was required to be designed, and streptavidin-labeled magnetic beads were washed, and then incubated with the synthesized DNA probe, mRNA and 10× RNase H reaction buffer with slowly mixing at room temperature for 30 min. 20 L of RNase H (5 U/μL) was then added, and the mixture was incubated at 37° C. for 3 h, with uniform mixing every half hour. After the incubation was completed, the magnetic beads were cleaned, and then 100 μL of 75% methanol heated to 80° C. was added to the cleaned magnetic beads. The mixture was heated to 80° C. on a heating plate, held for 3 min, and then placed on a magnetic rack. The supernatant was pipetted and dried at room temperature for 45 min to 10 Lby using an evaporation centrifuge. The sample was then resuspended in 50 μL of 100 μM EDTA/1% MeOH for LC-MS analysis to determine the capping of RNA in the transcription reaction. Due to the significant difference in molecular weight between capped and uncapped bases, the capping rates of mRNA transcription initiated with different cap analogs can be determined by using the difference in molecular weight.

Assay [3] concerns the target eukaryotic initiation factor (elF4E) (Homo sapiens, UniProt P06730). Put plainly: Assay of binding ability to eukaryotic initiation factor (elF4E), Biacore T100. The following applies: cap analog to elF4E protein; running buffer pH 6.0 or 7.4; read-out: Binding constant (converted). The procedure: Test method: Firstly, experimental samples, including the cap analog samples of Examples 1-7, compounds 10-13, 16, 17, 25, 31 and 34, and Comparative Example 1, were diluted with a running buffer (50 mM phosphate, 100 mM sodium chloride, and 0.01% vol/vol Tween 20, pH 6.0 or 7.4). The sample injection time was […], the sample injection flow rate was 20 L/min, and the dissociation time was […]. The residual samples were eluted with a regeneration buffer (10 mM HEPES, 150 mM NaCl, and 0.010% vol/vol Tween 20, pH 7.4) for 30 s at a flow rate of 30 μL/min. Finally, through analysis by Biacore T100 evaluation software (version 2.0.2), sensorgrams were generated and the binding constants were calculated.
In general terms: In SPR one partner is held on a chip, and binding of the other changes the refractive index at the surface.

Each structure is given as a SMILES string.

T1 sequence (P00573 whole entry): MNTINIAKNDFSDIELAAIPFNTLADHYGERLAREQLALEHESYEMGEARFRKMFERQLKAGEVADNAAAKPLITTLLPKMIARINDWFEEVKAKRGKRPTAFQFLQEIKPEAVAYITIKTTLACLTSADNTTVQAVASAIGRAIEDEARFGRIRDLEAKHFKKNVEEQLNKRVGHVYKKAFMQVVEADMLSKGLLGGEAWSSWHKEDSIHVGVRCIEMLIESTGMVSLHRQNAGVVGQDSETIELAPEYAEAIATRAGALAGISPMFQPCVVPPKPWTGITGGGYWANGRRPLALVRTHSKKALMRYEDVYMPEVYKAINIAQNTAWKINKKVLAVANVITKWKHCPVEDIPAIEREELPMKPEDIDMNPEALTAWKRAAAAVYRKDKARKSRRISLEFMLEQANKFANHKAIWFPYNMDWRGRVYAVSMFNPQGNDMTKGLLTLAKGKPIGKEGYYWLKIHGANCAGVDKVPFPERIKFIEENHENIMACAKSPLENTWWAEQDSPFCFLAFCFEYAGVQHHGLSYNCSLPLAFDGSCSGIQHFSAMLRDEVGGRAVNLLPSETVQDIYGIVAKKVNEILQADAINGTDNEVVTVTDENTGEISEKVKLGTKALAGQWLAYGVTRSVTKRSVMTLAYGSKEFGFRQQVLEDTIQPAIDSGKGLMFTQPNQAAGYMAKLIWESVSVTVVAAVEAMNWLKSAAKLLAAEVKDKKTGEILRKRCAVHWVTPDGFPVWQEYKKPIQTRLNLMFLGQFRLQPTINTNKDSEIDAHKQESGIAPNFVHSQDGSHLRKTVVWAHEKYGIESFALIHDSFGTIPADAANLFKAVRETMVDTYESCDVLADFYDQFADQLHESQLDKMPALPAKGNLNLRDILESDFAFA
Sequence of eukaryotic initiation factor (elF4E) (P06730 whole entry): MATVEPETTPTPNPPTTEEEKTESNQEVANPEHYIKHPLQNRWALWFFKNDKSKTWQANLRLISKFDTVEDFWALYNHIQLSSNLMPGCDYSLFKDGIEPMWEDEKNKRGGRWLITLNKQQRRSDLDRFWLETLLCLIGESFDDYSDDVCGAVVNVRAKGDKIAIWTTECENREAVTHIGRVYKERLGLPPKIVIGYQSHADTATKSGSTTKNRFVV

As to `COC1C(OP(=O)(O)OC[C@H]2O[C@@H](n3cnc4c(=O)[nH]c(N)nc43)C(O)C2O)[C@@H](/C=C\P(=O)(O)OP(=O)(O)OP(=O)(O)OC[C@H]2O[C@@H](n3c[n+](C)c4c(=O)[nH]c(N)nc43)C(O)C2CNC(C)=O)O[C@H]1n1cnc2c(N)ncnc21` (stereo partly drawn) [Compound 25], in assay [1], the Yield stood at 120 µg. The Capping rate in assay [2] came out at 96.1%. Further, the Kd in assay [3] is 224 nM.
`COC1C(OP(=O)(O)OC[C@H]2O[C@@H](n3cnc4c(=O)[nH]c(N)nc43)C(O)C2O)[C@@H](COP(=O)(O)OP(=O)(O)OP(=O)(O)/C=C/[C@H]2O[C@@H](n3c[n+](C)c4c(=O)[nH]c(N)nc43)C(O)C2CN(C)C(C)=O)O[C@H]1n1cnc2c(N)ncnc21` (stereo partly drawn) [Compound 31] came in with a Yield in assay [1] of 115 µg. Further, the Capping rate in assay [2] worked out at 95.7%. Besides, in assay [3], the Kd was 239 nM.
The like results for `COC1C(OP(=O)(O)/C=C/[C@H]2O[C@@H](n3cnc4c(=O)[nH]c(N)nc43)C(O)C2O)[C@@H](COP(=O)(O)OP(=O)(O)OP(=O)(O)OC[C@H]2O[C@@H](n3c[n+](C)c4c(=O)[nH]c(N)nc43)C(O)C2O)O[C@H]1n1cnc2c(N)ncnc21` (stereo partly drawn) [Example 1] were, in that order, 117 µg, 96.4% and 313 nM.
The like results for `COC1C(OP(=O)(O)OC[C@H]2O[C@@H](n3cnc4c(=O)[nH]c(N)nc43)C(O)C2O)[C@@H](COP(=O)(O)OP(=O)(O)OP(=O)(O)/C=C/[C@H]2O[C@@H](n3c[n+](C)c4c(=O)[nH]c(N)nc43)C(O)C2O)O[C@H]1n1cnc2c(N)ncnc21` (stereo partly drawn) [Example 2] were, in that order, 125 µg, 96.3% and 216 nM.
Regarding `COCC1C(O)[C@H](n2c[n+](C)c3c(=O)[nH]c(N)nc32)O[C@@H]1/C=C/P(=O)(O)OP(=O)(O)OP(=O)(O)OC[C@H]1O[C@@H](n2cnc3c(N)ncnc32)C(OC)C1OP(=O)(O)OC[C@H]1O[C@@H](n2cnc3c(=O)[nH]c(N)nc32)C(O)C1O` (stereo partly drawn) [Compound 11], in assay [1], the Yield came out at 116 µg. This molecule also came in with a Capping rate in assay [2] of 95.7%. Further, the Kd in assay [3] was 246 nM.
Consider `COC1[C@@H](OP(=O)(O)/C=C/[C@H]2O[C@@H](n3cnc4c(=O)[nH]c(N)nc43)C(O)[C@H]2O)[C@@H](COP(=O)(O)OP(=O)(O)OP(=O)(O)/C=C\[C@H]2O[C@@H](n3c[n+](C)c4c(=O)[nH]c(N)nc43)[C@@H](O)C2O)O[C@H]1n1cnc2c(N)ncnc21` (stereo partly drawn) [Example 4], for which, in assay [1], the Yield is 106 µg and the “in-vitro transcription yield compared with Comparative Example 1 (in words)” value is on record as “significantly lower than those of Comparative Example 1”. Besides, in assay [2], the Capping rate came out at 94.5% and the “capping efficiency compared with Comparative Example 1 (in words)” value is listed as “significantly lower than those of Comparative Example 1”. For the same molecule, the Kd in assay [3] was 377 nM.
Take `COC1[C@@H](OP(=O)(O)OC[C@H]2O[C@@H](n3cnc4c(=O)[nH]c(N)nc43)C(O)[C@H]2O)[C@@H](/C=C\P(=O)(O)OP(=O)(O)OP(=O)(O)/C=C\[C@H]2O[C@@H](n3c[n+](C)c4c(=O)[nH]c(N)nc43)[C@@H](O)C2O)O[C@H]1n1cnc2c(N)ncnc21` (stereo partly drawn) [Example 5]: in assay [1], the Yield came out at 102 µg and the “in-vitro transcription yield compared with Comparative Example 1 (in words)” value was “significantly lower than those of Comparative Example 1”. Also, in assay [2], the Capping rate is 90.2% and the “capping efficiency compared with Comparative Example 1 (in words)” value was “significantly lower than those of Comparative Example 1”. Moreover, the Kd in assay [3] was 395 nM.
For the molecule `COC1C(OP(=O)(O)OC[C@H]2O[C@@H](n3cnc4c(=O)[nH]c(N)nc43)C(O)C2O)[C@@H](COP(=O)(O)OP(=O)(O)OP(=O)(O)/C=C/[C@H]2O[C@@H](n3c[n+](C)c4c(=O)[nH]c(N)nc43)C(O)C2CNC(C)=O)O[C@H]1n1cnc2c(N)ncnc21` (stereo partly drawn) [Compound 12], the Yield in assay [1] came out at 123 µg. This molecule showed a Capping rate in assay [2] of 96.6%. For the same molecule, the Kd in assay [3] is 214 nM.
The like results for `COC1C(OP(=O)(O)OC[C@H]2O[C@@H](n3ccc(=O)[nH]c3=O)C(O)C2O)[C@@H](COP(=O)(O)OP(=O)(O)OP(=O)(O)/C=C/[C@H]2O[C@@H](n3c[n+](C)c4c(=O)[nH]c(N)nc43)C(O)C2CNC(C)=O)O[C@H]1n1cnc2c(N)ncnc21` (stereo partly drawn) [Compound 17] were, in that order, 122 µg, 96.2% and 222 nM.
`COC1C(OP(=O)(O)OC[C@H]2O[C@@H](n3cnc4c(=O)[nH]c(N)nc43)C(O)C2O)[C@@H](/C=C/P(=O)(O)OP(=O)(O)OP(=O)(O)OC[C@H]2O[C@@H](n3c[n+](C)c4c(=O)[nH]c(N)nc43)C(O)C2O)O[C@H]1n1cnc2c(N)ncnc21` (stereo partly drawn) [Example 3]: the Yield in assay [1] came to 122 µg. In addition, the Capping rate in assay [2] is reported as 95.3%. Moreover, the Kd in assay [3] is 240 nM.
The like results for `COC1C(OP(=O)(O)OC[C@H]2O[C@@H](n3cnc4c(=O)[nH]c(N)nc43)C(O)C2O)[C@@H](COP(=O)(O)OP(=O)(O)OP(=O)(O)/C=C/[C@H]2O[C@@H](n3c[n+](C)c4c(=O)[nH]c(N)nc43)C(F)C2O)O[C@H]1n1cnc2c(N)ncnc21` (stereo partly drawn) [Compound 16] were, in that order, 114 µg, 95.8% and 269 nM.
Regarding `COC1C(OP(=O)(O)OC[C@H]2O[C@@H](n3cnc4c(=O)[nH]c(N)nc43)C(O)C2O)[C@@H](COP(=O)(O)OP(=O)(O)OP(=O)(O)/C=C/[C@H]2O[C@@H](n3c[n+](C)c4c(=O)[nH]c(N)nc43)CC2OC)O[C@H]1n1cnc2c(N)ncnc21` (stereo partly drawn) [Compound 13], in assay [1], the Yield turned out to be 112 µg. The Capping rate in assay [2] is reported as 95.4%. Also, in assay [3], the Kd is 265 nM.
In the same order, the values of `CCCC(=O)NCC1C(O)[C@H](n2c[n+](C)c3c(=O)[nH]c(N)nc32)O[C@@H]1/C=C/P(=O)(O)OP(=O)(O)OP(=O)(O)OC[C@H]1O[C@@H](n2cnc3c(N)ncnc32)C(OC)C1OP(=O)(O)OC[C@H]1O[C@@H](n2cnc3c(=O)[nH]c(N)nc32)C(O)C1O` (stereo partly drawn) [Compound 34] are 117 µg, 95.9% and 236 nM.
For the molecule `COC1[C@@H](OP(=O)(O)/C=C/[C@H]2O[C@@H](n3cnc4c(=O)[nH]c(N)nc43)C(O)[C@H]2O)[C@@H](/C=C\P(=O)(O)OP(=O)(O)OP(=O)(O)OC[C@H]2O[C@@H](n3c[n+](C)c4c(=O)[nH]c(N)nc43)[C@@H](O)C2O)O[C@H]1n1cnc2c(N)ncnc21` (stereo partly drawn) [Example 6], in assay [1], the Yield is 96 µg and the “in-vitro transcription yield compared with Comparative Example 1 (in words)” value is listed as “significantly lower than those of Comparative Example 1”. Further, in assay [2], the Capping rate was 87.3% and the “capping efficiency compared with Comparative Example 1 (in words)” value is “significantly lower than those of Comparative Example 1”. The Kd in assay [3] is 362 nM.
For `COCCOC1C(O)[C@H](n2c[n+](C)c3c(=O)[nH]c(N)nc32)O[C@@H]1/C=C/P(=O)(O)OP(=O)(O)OP(=O)(O)OC[C@H]1O[C@@H](n2cnc3c(N)ncnc32)C(OC)C1OP(=O)(O)OC[C@H]1O[C@@H](n2cnc3c(=O)[nH]c(N)nc32)C(O)C1O` (stereo partly drawn) [Compound 10], the Yield in assay [1] stood at 124 µg. The Capping rate in assay [2] is on record as 96.4%. Moreover, in assay [3], the Kd was 218 nM.
